PubChem BioAssay AID250 (DTP/NCI, 2004)
Where “and” joins values, the source holds several entries; their conditions need not be identical. Identical values can stand only once. Toxic doses and inconclusive results are not listed.

Tested on: BDF1 mice, L1210 leukemia sc, survival T/C
Assay: NCI In Vivo Anticancer Drug Screen. Data for tumor model L1210 Leukemia (subcutaneous) in B6D2F1 (BDF1) mice
Conditions: higher = longer survival
Procedure, shortened: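 Mice carrying transplanted tumors received test compounds, and survival or tumor size was measured. Values are the treated-group measurement (T) divided by that of the vehicle-treated control group (C).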

CN(C)/N=N/c1nc[nH]c1C(N)=O was tested, and the T/C (endpoint: mean survival time, dose: 39.0 mg/kg/injection, schedule: Q01DX009 (sc), vehicle: steriod suspending solution) was 117 % of control, the T/C (endpoint: mean survival time, dose: 65.0 mg/kg/injection, schedule: Q01DX009 (sc), vehicle: steriod suspending solution) was 115 % of control and the T/C (endpoint: mean survival time, dose: 300.0 mg/kg/injection, schedule: Q01DX009 (sc), vehicle: steriod suspending solution) was 158 % of control. The T/C (endpoint: median survival time, dose: 39.0 mg/kg/injection, schedule: Q01DX009 (sc), vehicle: steriod suspending solution) was 110 % of control and 116 % of control, the T/C (endpoint: median survival time, dose: 39.0 mg/kg/injection, schedule: Q01DX013 (sc), vehicle: steriod suspending solution) was 110 % of control and 111 % of control and the T/C (endpoint: median survival time, dose: 39.0 mg/kg/injection, schedule: Q01DX Z (sc), vehicle: steriod suspending solution) was 110 % of control and 116 % of control. For the same compound, the T/C (endpoint: median survival time, dose: 65.0 mg/kg/injection, schedule: Q01DX009 (sc), vehicle: other) was 111 % of control, the T/C (endpoint: median survival time, dose: 65.0 mg/kg/injection, schedule: Q01DX009 (sc), vehicle: steriod suspending solution) was 110 % of control and 118 % of control and 121 % of control and the T/C (endpoint: median survival time, dose: 65.0 mg/kg/injection, schedule: Q01DX013 (sc), vehicle: other) was 113 % of control. For the same compound, the T/C (endpoint: median survival time, dose: 65.0 mg/kg/injection, schedule: Q01DX013 (sc), vehicle: steriod suspending solution) was 111 % of control and 113 % of control and 115 % of control, the T/C (endpoint: median survival time, dose: 65.0 mg/kg/injection, schedule: Q01DX017 (oral), vehicle: steriod suspending solution) was 124 % of control and the T/C (endpoint: median survival time, dose: 65.0 mg/kg/injection, schedule: Q01DX Z (sc), vehicle: steriod suspending solution) was 121 % of control and 122 % of control. The T/C (endpoint: median survival time, dose: 65.0 mg/kg/injection, schedule: Q ##X015 (oral), vehicle: steriod suspending solution) was 113 % of control, the T/C (endpoint: median survival time, dose: 65.0 mg/kg/injection, schedule: Q## X015 (oral), vehicle: steriod suspending solution) was 116 % of control and the T/C (endpoint: median survival time, dose: 108.0 mg/kg/injection, schedule: Q01DX009 (sc), vehicle: other) was 108 % of control. For the same compound, the T/C (endpoint: median survival time, dose: 108.0 mg/kg/injection, schedule: Q01DX013 (sc), vehicle: steriod suspending solution) was 115 % of control and 117 % of control and 122 % of control, the T/C (endpoint: median survival time, dose: 108.0 mg/kg/injection, schedule: Q01DX Z (sc), vehicle: steriod suspending solution) was 115 % of control and the T/C (endpoint: median survival time, dose: 108.0 mg/kg/injection, schedule: Q ##X015 (oral), vehicle: steriod suspending solution) was 117 % of control. The T/C (endpoint: median survival time, dose: 108.0 mg/kg/injection, schedule: Q## X015 (oral), vehicle: steriod suspending solution) was 116 % of control, the T/C (endpoint: median survival time, dose: 180.0 mg/kg/injection, schedule: Q01DX009 (sc), vehicle: other) was 115 % of control and the T/C (endpoint: median survival time, dose: 300.0 mg/kg/injection, schedule: Q01DX Z (sc), vehicle: steriod suspending solution) was 166 % of control. For the same compound, the T/C (endpoint: median survival time, dose: 500.0 mg/kg/injection, schedule: Q01DX013 (sc), vehicle: other) was 166 % of control, the T/C (endpoint: median survival time, dose: 500.0 mg/kg/injection, schedule: Q01DX013 (sc), vehicle: steriod suspending solution) was 166 % of control and the T/C (endpoint: median survival time, dose: 500.0 mg/kg/injection, schedule: Q01DX017 (oral), vehicle: steriod suspending solution) was 150 % of control. The T/C (endpoint: median survival time, dose: 500.0 mg/kg/injection, schedule: Q## X015 (oral), vehicle: steriod suspending solution) was 150 % of control, the T/C (endpoint: median survival time, dose: 833.0 mg/kg/injection, schedule: Q ##X015 (oral), vehicle: steriod suspending solution) was 158 % of control and the T/C (endpoint: median survival time, dose: 833.0 mg/kg/injection, schedule: Q## X015 (oral), vehicle: steriod suspending solution) was 166 % of control.
In the case of CS(=O)(=O)OCC(=O)NCCNC(=O)COS(C)(=O)=O, the T/C (endpoint: median survival time, dose: 39.0 mg/kg/injection, schedule: Q01DX Z (sc), vehicle: methylcellulose (MC)) is reported as 105 % of control, the T/C (endpoint: median survival time, dose: 65.0 mg/kg/injection, schedule: Q01DX Z (sc), vehicle: methylcellulose (MC)) is reported as 105 % of control and the T/C (endpoint: median survival time, dose: 108.0 mg/kg/injection, schedule: Q01DX Z (sc), vehicle: methylcellulose (MC)) is reported as 110 % of control. For the same compound, the T/C (endpoint: median survival time, dose: 180.0 mg/kg/injection, schedule: Q01DX Z (sc), vehicle: methylcellulose (MC)) was 110 % of control, the T/C (endpoint: median survival time, dose: 300.0 mg/kg/injection, schedule: Q01DX Z (sc), vehicle: methylcellulose (MC)) was 115 % of control and the T/C (endpoint: median survival time, dose: 500.0 mg/kg/injection, schedule: Q01DX Z (sc), vehicle: methylcellulose (MC)) was 100 % of control.
